Experimental data reported in ChEMBL document CHEMBL4251708, “Synthesis and Biological Screening of Pyrano[3,2-c]quinoline Analogues as Anti-inflammatory and Anticancer Agents” (ACS Med Chem Lett, 2018).
Calls of active or inactive are those of the source. The rule behind the calls is not given here.

How the values were obtained:
THP-1 [1] = test: Antiinflammatory activity in PMA-differentiated human THP1 cells assessed as inhibition of LPS-induced TNF-alpha production at 1 uM after 24 hrs by ELISA relative to control; format: functional; details: THP-1, 24 h
THP-1 [2] = test: Antiinflammatory activity in PMA-differentiated human THP1 cells assessed as inhibition of LPS-induced TNF-alpha production at 10 uM after 24 hrs by ELISA relative to control; format: functional; details: THP-1, 24 h
THP-1 [3] = test: Antiinflammatory activity in PMA-differentiated human THP1 cells assessed as inhibition of LPS-induced IL-6 production at 1 uM after 24 hrs by ELISA relative to control; format: functional; details: THP-1, 24 h
THP-1 [4] = test: Antiinflammatory activity in PMA-differentiated human THP1 cells assessed as inhibition of LPS-induced IL-6 production at 10 uM after 24 hrs by ELISA relative to control; format: functional; details: THP-1, 24 h
MIA PaCa-2 = test: Antiproliferative activity against human MIAPaCa2 cells at 10 uM relative to control; format: functional
ACHN (Homo sapiens) [5] = test: Antiproliferative activity against human ACHN cells at 1 uM relative to control
ACHN (Homo sapiens) [6] = test: Antiproliferative activity against human ACHN cells at 10 uM relative to control
[7] = tested on: MDA-MB-231 (Homo sapiens); test: Antiproliferative activity against human MDA-MB-231 cells at 1 uM relative to control; details: mda-mb-231, 1 µM
[8] = tested on: MIA PaCa-2 (Homo sapiens); test: Antiproliferative activity against human MIA PaCa-2 cells at 1 uM relative to control
THP-1 (Homo sapiens) [9] = test: Antiinflammatory activity in human THP1 cells assessed as inhibition of IL-6 production at 10 uM relative to control; set-up: scale not given: the % may be the effect or the level left
THP-1 (Homo sapiens) [10] = test: Antiinflammatory activity in human THP1 cells assessed as inhibition of TNF-alpha production at 10 uM relative to control; set-up: scale not given: the % may be the effect or the level left
THP-1 [11] = test: Antiinflammatory activity in PMA-differentiated human THP1 cells assessed as inhibition of LPS-induced TNF-alpha production after 24 hrs by ELISA; format: functional, cell-based; details: THP-1, 24 h
THP-1 [12] = test: Antiinflammatory activity in PMA-differentiated human THP1 cells assessed as inhibition of LPS-induced IL-6 production after 24 hrs by ELISA; format: functional, cell-based; details: THP-1, 24 h
THP-1 [13] = test: Cytotoxicity against PMA-differentiated human THP1 cells assessed as reduction in cell viability after 4.5 hrs by MTS assay; format: cell-based; details: THP-1, 4.5 h
ACHN [14] = test: Antiproliferative activity against human ACHN cells after 48 hrs by propidium iodide staining based fluorometry; format: functional, cell-based
PANC-1 = test: Antiproliferative activity against human PANC1 cells after 48 hrs by propidium iodide staining based fluorometry; format: functional, cell-based; details: PANC-1, 48 h
HCT-116 = test: Antiproliferative activity against human HCT116 cells after 48 hrs by propidium iodide staining based fluorometry; format: functional, cell-based; details: HCT-116, 48 h
NCI-H460 = test: Antiproliferative activity against human H460 cells after 48 hrs by propidium iodide staining based fluorometry; format: functional, cell-based; details: NCI-H460, 48 h
Calu-1 = test: Antiproliferative activity against human Calu1 cells after 48 hrs by propidium iodide staining based fluorometry; format: functional, cell-based; details: Calu-1, 48 h
PBMC = test: Antiinflammatory activity in human PBMC assessed as inhibition of LPS-induced TNF-alpha production incubated for 30 mins followed by LPS addition measured after 4.5 hrs by ELISA; format: functional, cell-based
A-549 (Homo sapiens) = test: Antiproliferative activity against human A-549 cells at 10 uM relative to control
[15] = tested on: MDA-MB-231 (Homo sapiens); test: Antiproliferative activity against human MDA-MB-231 cells at 10 uM relative to control
ACHN [16] = test: Antiproliferative activity against human ACHN cells at 10 uM relative to control; format: functional

| Structure (SMILES) | inhibition at 1 µM (THP-1 [1]) [%] | inhibition at 10 µM (THP-1 [2]) [%] | inhibition at 1 µM (THP-1 [3]) [%] | inhibition at 10 µM (THP-1 [4]) [%] | Activity (MIA PaCa-2) [%] | Activity (ACHN (Homo sapiens) [5]) [%] | Activity (ACHN (Homo sapiens) [6]) [%] | Activity [7] [%] | Activity [8] [%] | Activity (THP-1 (Homo sapiens) [9]) [%] | Activity (THP-1 (Homo sapiens) [10]) [%] | IC50 (THP-1 [11]) [nM] | IC50 (THP-1 [12]) [nM] | IC50 (THP-1 [13]) [nM] | IC50 (ACHN [14]) [nM] | IC50 (PANC-1) [nM] | IC50 (HCT-116) [nM] | IC50 (NCI-H460) [nM] | IC50 (Calu-1) [nM] | Activity (A-549 (Homo sapiens)) [%] | other results |
| --- | --- | --- | --- | --- | --- | --- | --- | --- | --- | --- | --- | --- | --- | --- | --- | --- | --- | --- | --- | --- | --- |
| Cn1c(=O)c2c(c3ccccc31)OC(N)=C(C#N)C2c1ccc(Cl)cc1 (stereo not given) | 0 | 0 | 0 | 75 | 63 | 45 | 69 | 0 | 21 | 75 | 42 | – | – | – | – | – | – | – | – | – | – |
| Cn1c(=O)c2c(c3ccccc31)OC(N)=C(C#N)C2c1cccc(Br)c1 (stereo not given) | 2 | 0 | 0 | 82 | 70 | 73 | 75 | 45 | 61 | 82 | 38 | 500 | 80 | 10000 | 900 | 800 | 900 | 800 | 800 | 78 | IC50 (PBMC): 500 nM; Activity [15]: 54% |
| Cn1c(=O)c2c(c3ccccc31)OC(N)=C(C#N)C2c1cccc(Oc2ccccc2)c1 (stereo not given) | 18 | 0 | 0 | 70 | 72 | 69 | – | 47 | 66 | 52 | 34 | 200 | 200 | 11000 | 3400 | 4700 | 5100 | 1400 | 1800 | 67 | IC50 (PBMC): 200 nM; inhibition (PBMC): Dose-dependent effect; Activity [15]: 51% |
| Cn1c(=O)c2c(c3ccccc31)OC(N)=C(C#N)C2c1ccc(F)cc1 (stereo not given) | 0 | 0 | 0 | 66 | 45 | 27 | 50 | 0 | 16 | 66 | 0 | – | – | – | – | – | – | – | – | 22 | – |
| Cn1c(=O)c2c(c3ccccc31)OC(N)=C(C#N)C2c1ccccc1 (stereo not given) | 0 | 0 | 0 | 66 | 41 | 61 | – | 0 | 45 | 66 | 0 | 4900 | < 30 | > 10000 | 2800 | 1500 | 1000 | 1300 | 1200 | – | Activity (ACHN [16]): 82%; inhibition (PBMC): inactive |
| Cn1c(=O)c2c(c3ccccc31)OC(N)=C(C#N)C2c1ccc([N+](=O)[O-])cc1 (stereo not given) | 0 | 0 | 0 | 0 | 64 | 9 | 75 | 0 | 15 | 0 | 27 | – | – | – | – | – | – | – | – | 77 | – |
| COc1cccc(C2C(C#N)=C(N)Oc3c2c(=O)n(C)c2ccccc32)c1 (stereo not given) | 0 | 0 | 0 | 70 | 75 | 67 | 73 | 66 | 76 | – | 0 | – | – | – | – | – | – | – | – | – | Activity [15]: 75% |
| Cn1c(=O)c2c(c3ccccc31)OC(N)=C(C#N)C2c1cccc([N+](=O)[O-])c1 (stereo not given) | 11 | 0 | 0 | 79 | 70 | 79 | 83 | 53 | 65 | 79 | 43 | 300 | 250 | > 10000 | 1600 | 2500 | 6600 | 1900 | 1100 | 71 | IC50 (PBMC): 200 nM; inhibition (PBMC): Dose-dependent effect; Activity [15]: 65% |
| Cn1c(=O)c2c(c3ccccc31)OC(N)=C(C#N)C2c1ccccc1[N+](=O)[O-] (stereo not given) | 0 | 0 | 0 | 78 | 51 | 49 | 68 | 0 | 35 | 78 | 36 | – | – | – | – | – | – | – | – | 36 | – |
| COc1ccc(C2C(C#N)=C(N)Oc3c2c(=O)n(C)c2ccccc32)cc1 (stereo not given) | 0 | 0 | 0 | 73 | 84 | 78 | – | 70 | 80 | 77 | 0 | 12800 | 1700 | 30000 | > 20000 | > 20000 | > 20000 | > 20000 | > 20000 | – | inhibition (PBMC): inactive; Activity [15]: 81% |
